Assay results published in ChEMBL document CHEMBL5678818, “Discovery of potent SOS1 inhibitors that block RAS activation via disruption of the RAS-SOS1 interaction” (Proc Natl Acad Sci U S A, 2019).

Experiments:
[1] = biological target: T1, Serine/threonine-protein kinase 36 (Homo sapiens) (UniProt Q9NRP7); assay: Inhibition of STK36 (unknown origin) assessed as residual activity at 100 nM by KINOMEscan analysis relative to control
T1 sequence (whole entry): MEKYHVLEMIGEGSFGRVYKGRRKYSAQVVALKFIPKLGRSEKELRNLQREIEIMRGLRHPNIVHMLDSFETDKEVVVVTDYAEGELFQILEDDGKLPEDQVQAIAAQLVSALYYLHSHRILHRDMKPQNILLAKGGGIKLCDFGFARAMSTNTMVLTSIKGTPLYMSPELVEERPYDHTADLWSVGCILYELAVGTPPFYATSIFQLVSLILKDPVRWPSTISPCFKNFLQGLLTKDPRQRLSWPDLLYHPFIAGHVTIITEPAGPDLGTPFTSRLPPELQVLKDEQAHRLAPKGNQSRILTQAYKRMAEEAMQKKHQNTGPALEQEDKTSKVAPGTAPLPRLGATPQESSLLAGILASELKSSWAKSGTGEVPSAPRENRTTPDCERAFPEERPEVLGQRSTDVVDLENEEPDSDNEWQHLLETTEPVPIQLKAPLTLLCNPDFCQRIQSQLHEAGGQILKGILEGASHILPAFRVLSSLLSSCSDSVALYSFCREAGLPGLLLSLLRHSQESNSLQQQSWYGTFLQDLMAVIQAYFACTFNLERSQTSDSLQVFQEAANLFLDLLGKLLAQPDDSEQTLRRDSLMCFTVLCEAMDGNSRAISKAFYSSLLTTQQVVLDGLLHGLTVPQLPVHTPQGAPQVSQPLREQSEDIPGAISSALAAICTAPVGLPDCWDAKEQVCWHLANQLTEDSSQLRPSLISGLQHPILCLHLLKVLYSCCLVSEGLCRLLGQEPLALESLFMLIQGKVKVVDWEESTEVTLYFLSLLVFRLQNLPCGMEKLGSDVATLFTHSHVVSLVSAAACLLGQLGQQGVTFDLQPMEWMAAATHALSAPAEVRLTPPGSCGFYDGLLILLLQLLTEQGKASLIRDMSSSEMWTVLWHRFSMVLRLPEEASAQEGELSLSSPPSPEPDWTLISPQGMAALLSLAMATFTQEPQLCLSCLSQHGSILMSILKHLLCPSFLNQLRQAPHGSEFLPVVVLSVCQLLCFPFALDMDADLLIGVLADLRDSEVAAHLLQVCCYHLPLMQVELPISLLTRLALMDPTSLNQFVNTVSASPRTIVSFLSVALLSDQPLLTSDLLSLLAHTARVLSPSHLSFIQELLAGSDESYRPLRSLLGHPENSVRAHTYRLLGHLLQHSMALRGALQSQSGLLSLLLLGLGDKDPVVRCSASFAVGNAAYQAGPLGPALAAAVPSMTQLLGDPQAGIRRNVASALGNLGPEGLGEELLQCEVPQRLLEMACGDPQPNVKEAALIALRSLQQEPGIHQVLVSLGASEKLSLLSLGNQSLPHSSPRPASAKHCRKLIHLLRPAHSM

[2] = biological target: Death-associated protein kinase 2 (Homo sapiens) (UniProt Q9UIK4); assay: Inhibition of DAPK2 (unknown origin) assessed as residual activity at 100 nM by KINOMEscan analysis relative to control
[3] = biological target: T2, Cyclin-dependent kinase 11A (Homo sapiens) (UniProt Q9UQ88); assay: Inhibition of CDC2L2 (unknown origin) assessed as residual activity at 100 nM by KINOMEscan analysis relative to control
T2 sequence (whole entry): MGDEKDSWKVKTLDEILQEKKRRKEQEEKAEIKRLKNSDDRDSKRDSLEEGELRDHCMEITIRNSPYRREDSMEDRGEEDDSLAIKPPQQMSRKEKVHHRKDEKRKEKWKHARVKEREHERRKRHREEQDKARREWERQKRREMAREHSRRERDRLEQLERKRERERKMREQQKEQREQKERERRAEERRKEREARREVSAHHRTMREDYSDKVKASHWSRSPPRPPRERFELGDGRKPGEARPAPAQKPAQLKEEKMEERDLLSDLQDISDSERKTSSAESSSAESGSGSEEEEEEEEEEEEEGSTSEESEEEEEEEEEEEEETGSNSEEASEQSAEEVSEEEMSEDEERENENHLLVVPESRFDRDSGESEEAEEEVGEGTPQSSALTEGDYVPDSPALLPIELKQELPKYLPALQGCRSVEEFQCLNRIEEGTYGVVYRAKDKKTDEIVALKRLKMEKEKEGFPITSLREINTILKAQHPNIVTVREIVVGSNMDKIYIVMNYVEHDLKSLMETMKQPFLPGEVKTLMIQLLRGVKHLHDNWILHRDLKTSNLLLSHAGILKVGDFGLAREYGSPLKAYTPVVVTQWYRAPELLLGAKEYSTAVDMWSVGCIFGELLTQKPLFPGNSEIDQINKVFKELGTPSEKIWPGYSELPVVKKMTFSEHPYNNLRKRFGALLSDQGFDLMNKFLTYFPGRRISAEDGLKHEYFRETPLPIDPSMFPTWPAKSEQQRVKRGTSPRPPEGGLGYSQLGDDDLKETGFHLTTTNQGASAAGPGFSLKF

Sequence of Death-associated protein kinase 2 (Homo sapiens) (Q9UIK4 whole entry, looked up): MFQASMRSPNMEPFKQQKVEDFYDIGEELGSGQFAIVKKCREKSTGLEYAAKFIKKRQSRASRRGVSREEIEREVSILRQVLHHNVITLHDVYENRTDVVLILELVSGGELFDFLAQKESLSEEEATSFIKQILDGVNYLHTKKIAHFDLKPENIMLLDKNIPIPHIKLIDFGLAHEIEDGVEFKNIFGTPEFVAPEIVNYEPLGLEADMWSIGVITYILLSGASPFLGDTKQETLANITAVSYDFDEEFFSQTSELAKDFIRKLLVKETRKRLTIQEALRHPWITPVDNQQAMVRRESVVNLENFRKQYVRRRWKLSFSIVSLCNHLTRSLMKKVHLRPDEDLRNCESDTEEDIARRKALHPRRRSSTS

COc1cc2ncnc(N[C@H](C)c3cccc4ccccc34)c2cc1OC
Activity [1]: 80%
Activity [2]: 100%
Activity [3]: 82%
